{"source": "patent US11999956B2", "about": "“Targeted therapy composition and its use for suppressing breast cancer cell proliferation, migration or invasion” (NATIONAL CHENG KUNG UNIVERSITY, priority 2021, dated 2024)", "key": {"[1]": {"test_system": "AMPK-α1 and AMPK-α2", "experiment": "Western blot, effect of Metformin on AMPK signaling pathway in SKBR3 cells", "assay_type": "cell-based, human", "protocol": "Cells were lyzed in a radioimmunoprecipitation assay (RIPA) lysis buffer (Thermo Fisher Scientific Inc., Waltham, MA) and protease inhibitors (Thermo Fisher Scientific Inc., Waltham, MA) were used for protein extraction. Briefly, a total of 30 μg of protein was prepared on a 6 to 12% SDS-PAGE and transferred to a 0.2 to 0.45 μm polyvinylidene difluoride membrane (Stratagene, La Jolla, CA) and blocked by 5% milk (non-fat milk) in Tris Buffered Saline Buffer with Tween 20 (TBST). The membrane was hybridized with primary antibody at 4° C. overnight. The following day, after being washed with TBST for three times, membranes were incubated with secondary antibodies (anti-rabbit or anti-mouse IgG antibody) for 1 hour at room temperature. Detection of protein bands was performed using enhanced chemiluminescence system (Amersham ECL Plus; GE Healthcare, Piscataway, NJ).\nPlease refer to FIGS. 12A to 12B. The potential impact of EMP3 on sensitivity to Metformin in SKBR3 cells in vitro was illustrated therein. […] That means knocking down of EMP3 raises survival rate of breast cancer cells upon treatment of Metformin, which may imply a desensitizing effect of EMP3 on breast cancer cells in upon Metformin treatment. […] As well-known in the field of endeavor, interference of cross-talk between AMPK and Wnt/β-catenin signaling pathways may decelerate cell growth of breast cancer cells. […]"}, "[2]": {"test_system": "SKBR3 cells", "experiment": "IC50 of Metformin in SKBR3/Vec and SKBR3/siEMP3 cells", "assay_type": "cell-based, human", "settings": "72 hours post treatment; SKBR3/siEMP3 vs SKBR3/Vec", "source_text": "Please refer to FIGS. 12A to 12B. The potential impact of EMP3 on sensitivity to Metformin in SKBR3 cells in vitro was illustrated therein. […] That means knocking down of EMP3 raises survival rate of breast cancer cells upon treatment of Metformin, which may imply a desensitizing effect of EMP3 on breast cancer cells in upon Metformin treatment. […] As well-known in the field of endeavor, interference of cross-talk between AMPK and Wnt/β-catenin signaling pathways may decelerate cell growth of breast cancer cells. In example 7, the intervention level of Metformin to AMPK in SKBR3/Vec and SKBR3/siEMP3 cancer cells was verified."}}}
{"smiles": "CN(C)C(=N)N=C(N)N", "note": "[Metformin]", "values": [{"measurement": "AMPK-α1 expression", "setting": "[1]", "value": "down-regulated"}, {"measurement": "AMPK-α2 expression", "setting": "[1]", "value": "down-regulated"}, {"measurement": "IC50 values for Metformin in SKBR3/siEMP3 cells relative to vector control", "setting": "[2]", "value": "higher"}]}
